# From US20050004185A1, “Polyene polyketides, processes for their production and their use as pharmaceuticals” (priority 2003, published 2005)
# Where two headings read alike, the source gives them in different places.
# Columns and labels:
# [1] = test system: A549/ATCC; experiment: In vitro cytotoxic efficacy (MTT); type: cell-based; conditions: Homo sapiens
# [2] = test system: C. glabrata (Cgla); experiment: MIC broth microdilution assay (NCCLS M27-A); type: cell-based; conditions: Nakaseomyces glabratus, read-out: Minimal Inhibitory Concentrations
# [3] = test system: MDA-MB-231/ATCC; experiment: In vitro cytotoxic efficacy (MTT); conditions: Homo sapiens, MDA-MB-231, 96 h
# [4] = test system: A498; experiment: In vitro cytotoxic efficacy (MTT); conditions: Homo sapiens, A498, 96 h
# [5] = test system: HT29; experiment: In vitro cytotoxic efficacy (MTT); type: cell-based; conditions: Homo sapiens
# [6] = test system: NCI-H460; experiment: In vitro cytotoxic efficacy (MTT); type: cell-based; conditions: Homo sapiens
# [7] = test system: MCF7; experiment: In vitro cytotoxic efficacy (MTT); type: cell-based; conditions: Homo sapiens
# [8] = test system: LB1319-MEL; experiment: In vitro cytotoxic efficacy (MTT); type: cell-based; conditions: Melanoma, 96 h
# [9] = test system: Candida sp. (Cflu); experiment: MIC broth microdilution assay (NCCLS M27-A); type: cell-based; conditions: read-out: Minimal Inhibitory Concentrations
# [10] = test system: PC-3; experiment: In vitro cytotoxic efficacy (MTT); conditions: Homo sapiens, PC-3, 96 h
# [11] = test system: PANC-1; experiment: In vitro cytotoxic efficacy (MTT); type: cell-based; conditions: Homo sapiens, Pancreatic, 96 h
# [12] = test system: S. cerevisiae (Scer); experiment: MIC broth microdilution assay (NCCLS M27-A); conditions: Saccharomyces cerevisiae, read-out: Minimal Inhibitory Concentrations
# [13] = test system: SK-OV3; experiment: In vitro cytotoxic efficacy (MTT); type: cell-based; conditions: Homo sapiens
# [14] = test system: SNB-19; experiment: In vitro cytotoxic efficacy (MTT); type: cell-based; conditions: Homo sapiens
# [15] = test system: C. albicans (Ctro); experiment: MIC broth microdilution assay (NCCLS M27-A); type: cell-based; conditions: Candida albicans, read-out: Minimal Inhibitory Concentrations
# [16] = test system: C. albicans (Calb); experiment: MIC broth microdilution assay (NCCLS M27-A); type: cell-based; conditions: Candida albicans, read-out: Minimal Inhibitory Concentrations
# [17] = test system: DU-145; experiment: In vitro cytotoxic efficacy (MTT); type: cell-based; conditions: Homo sapiens, Prostate, 96 h
# [18] = test system: OVCAR-3; experiment: In vitro cytotoxic efficacy (MTT); type: cell-based; conditions: Homo sapiens, Ovarian, 96 h
# [19] = test system: K562; experiment: In vitro cytotoxic efficacy (MTT); type: cell-based; conditions: Homo sapiens, Leukemia, 96 h
# [20] = test system: KM12; experiment: In vitro cytotoxic efficacy (MTT); type: cell-based; conditions: Homo sapiens, Colon, 96 h
# [21] = test system: U-251; experiment: In vitro cytotoxic efficacy (MTT); type: cell-based; conditions: Homo sapiens, CNS, 96 h
# [22] = test system: SK-MEL-5; experiment: In vitro cytotoxic efficacy (MTT); type: cell-based; conditions: Homo sapiens, Melanoma, 96 h
# [23] = test system: MOLT-4; experiment: In vitro cytotoxic efficacy (MTT); type: cell-based; conditions: Homo sapiens, Leukemia, 96 h
# [24] = test system: EKVX; experiment: In vitro cytotoxic efficacy (MTT); type: cell-based; conditions: Homo sapiens, Non-small cell lung, 96 h
# [25] = test system: OVCAR-4; experiment: In vitro cytotoxic efficacy (MTT); type: cell-based; conditions: Homo sapiens, Ovarian, 96 h
# [26] = test system: SK-MEL-28; experiment: In vitro cytotoxic efficacy (MTT); type: cell-based; conditions: Homo sapiens, Melanoma, 96 h
# [27] = test system: T-47D; experiment: In vitro cytotoxic efficacy (MTT); type: cell-based; conditions: Homo sapiens, T47D, Breast, 96 h
# [28] = test system: LOX IMVI; experiment: In vitro cytotoxic efficacy (MTT); type: cell-based; conditions: Homo sapiens, Melanoma, 96 h
# [29] = test system: RXF 393; experiment: In vitro cytotoxic efficacy (MTT); type: cell-based; conditions: Homo sapiens, Renal, 96 h
# [30] = test system: CCRF-CEM; experiment: In vitro cytotoxic efficacy (MTT); type: cell-based; conditions: Homo sapiens, Leukemia, 96 h
# [31] = test system: CAKI-1; experiment: In vitro cytotoxic efficacy (MTT); type: cell-based; conditions: Homo sapiens, Renal, 96 h
# [32] = test system: TK-10; experiment: In vitro cytotoxic efficacy (MTT); type: cell-based; conditions: Homo sapiens, Renal, 96 h
# [33] = test system: OVCAR-5; experiment: In vitro cytotoxic efficacy (MTT); type: cell-based; conditions: Homo sapiens, Ovarian, 96 h
# [34] = test system: SK-MEL-2; experiment: In vitro cytotoxic efficacy (MTT); type: cell-based; conditions: Homo sapiens, Melanoma, 96 h
# [35] = test system: SW-620; experiment: In vitro cytotoxic efficacy (MTT); type: cell-based; conditions: Homo sapiens, Colon, 96 h
# [36] = test system: HCT-116; experiment: In vitro cytotoxic efficacy (MTT); conditions: Homo sapiens, HCT-116, 96 h
# [37] = test system: UO-31; experiment: In vitro cytotoxic efficacy (MTT); type: cell-based; conditions: Homo sapiens, Renal, 96 h
# [38] = test system: HCT-15; experiment: In vitro cytotoxic efficacy (MTT); type: cell-based; conditions: Homo sapiens, Colon, 96 h
# [39] = test system: HCC-2998; experiment: In vitro cytotoxic efficacy (MTT); type: cell-based; conditions: Homo sapiens, Colon, 96 h
# [40] = test system: IGROV1; experiment: In vitro cytotoxic efficacy (MTT); type: cell-based; conditions: Homo sapiens, IGROV-1, Ovarian, 96 h
# [41] = test system: RPMI-8226; experiment: In vitro cytotoxic efficacy (MTT); type: cell-based; conditions: Homo sapiens, Leukemia, 96 h
# [42] = test system: NCI-H522; experiment: In vitro cytotoxic efficacy (MTT); type: cell-based; conditions: Homo sapiens, Non-small cell lung, 96 h
# [43] = test system: BT-549; experiment: In vitro cytotoxic efficacy (MTT); type: cell-based; conditions: Homo sapiens, Breast, 96 h
# [44] = test system: SN12C; experiment: In vitro cytotoxic efficacy (MTT); type: cell-based; conditions: Homo sapiens, Renal, 96 h
# [45] = test system: COLO 205; experiment: In vitro cytotoxic efficacy (MTT); type: cell-based; conditions: Homo sapiens, Colon, 96 h
# [46] = test system: SR; experiment: In vitro cytotoxic efficacy (MTT); type: cell-based; conditions: Homo sapiens, Leukemia, 96 h
# [47] = test system: MDA-MB-435; experiment: In vitro cytotoxic efficacy (MTT); type: cell-based; conditions: Homo sapiens, Breast, 96 h
# [48] = test system: NCI/ADR-RES; experiment: In vitro cytotoxic efficacy (MTT); type: cell-based; conditions: Homo sapiens, Breast, 96 h
# [49] = test system: OVCAR-8; experiment: In vitro cytotoxic efficacy (MTT); type: cell-based; conditions: Homo sapiens, Ovarian, 96 h
# [50] = test system: HOP-92; experiment: In vitro cytotoxic efficacy (MTT); type: cell-based; conditions: Homo sapiens, Non-small cell lung, 96 h
# [51] = test system: SF-268; experiment: In vitro cytotoxic efficacy (MTT); type: cell-based; conditions: Homo sapiens, CNS, 96 h
# [52] = test system: SF-295; experiment: In vitro cytotoxic efficacy (MTT); type: cell-based; conditions: Homo sapiens, CNS, 96 h
# [53] = test system: 786-0; experiment: In vitro cytotoxic efficacy (MTT); type: cell-based; conditions: Homo sapiens, Renal, 96 h
# [54] = test system: UACC-257; experiment: In vitro cytotoxic efficacy (MTT); type: cell-based; conditions: Homo sapiens, Melanoma, 96 h
# [55] = test system: SF-539; experiment: In vitro cytotoxic efficacy (MTT); type: cell-based; conditions: Homo sapiens, CNS, 96 h
# [56] = test system: HL-60 (TB); experiment: In vitro cytotoxic efficacy (MTT); type: cell-based; conditions: Homo sapiens, Leukemia, 96 h
# [57] = test system: SNB-75; experiment: In vitro cytotoxic efficacy (MTT); type: cell-based; conditions: Homo sapiens, CNS, 96 h
# [58] = test system: M14; experiment: In vitro cytotoxic efficacy (MTT); type: cell-based; conditions: Homo sapiens, Melanoma, 96 h
# [59] = test system: UACC; experiment: In vitro cytotoxic efficacy (MTT); type: cell-based; conditions: 96 h
compound,measurement,setting,value
C\C(=C/C=C/C=C/CC/C=C/C(C)C(O)C(C)C(O)/C=C/C=C/C=C/C=C/C=C/C=C/CC(OS(=O)(=O)O)C(C)C(=O)CC(O)CC(O)/C=C/CC(O)CC(O)CC(O)/C=C/CC(O)CC(O)/C=C/CC(O)CC(O)CCCNC(=N)N)C(=O)O (stereo not shown) [Compound 1],IC50,"[1]; Non-small cell lung, A549/ATCC, 96 h, MTT, read-out: IC50",12 µM
same,MIC,[2]; 24 hrs,4 µg/mL
same,IC50,[3],12 µM
same,IC50,[4],13 µM
same,IC50,"[5]; HT-29, Colon, HT29, 96 h, MTT, read-out: IC50",23 µM
same,IC50,"[6]; Non-small cell lung, NCI-H460, 96 h, MTT, read-out: IC50",13 µM
same,IC50,"[7]; Breast, MCF7, 96 h, MTT, read-out: IC50",18 µM
same,IC50,[8],11 µM
same,MIC,[9]; 24 hrs,8 µg/mL
same,IC50,[10],10 µM
same,IC50,[11],15 µM
same,MIC,[12]; 24 h,4 µg/mL
same,IC50,"[13]; SK-OV-3, Ovarian, SK-OV3, 96 h, MTT, read-out: IC50",15 µM
same,IC50,"[14]; CNS, SNB-19, 96 h, MTT, read-out: IC50",10 µM
same,MIC,"[15]; C. albicans (Ctro), 24 hrs",4 µg/mL
same,MIC,[16]; 24 hrs,4 µg/mL
same,IC50,[17],8 µM
same,IC50,[18],12 µM
C\C(=C/C=C/C=C/CC/C=C/C(C)C(O)C(C)C(O)/C=C/C=C/C=C/C=C/C=C/C=C/CC(O)C(C)C(=O)CC(O)CC(O)/C=C/CC(O)CC(O)CC(O)/C=C/CC(O)CC(O)/C=C/CC(O)CC(O)CCCNC(=N)N)C(=O)O (stereo not shown) [Compound 2],IC50,[19],8 µM
same,IC50,"[1]; A549, 96 h",7 µM
same,IC50,[20],0.8 µM
same,IC50,[21],6 µM
same,IC50,[22],2 µM
same,IC50,[23],> 25 µM
same,IC50,[24],8 µM
same,MIC,[2]; 48 hrs,4 µg/mL
same,IC50,[3],9 µM
same,IC50,[25],> 25 µM
same,IC50,[26],13 µM
same,IC50,[27],> 25 µM
same,IC50,[28],6 µM
same,IC50,[4],6 µM
same,IC50,[29],0.4 µM
same,IC50,[30],> 25 µM
same,IC50,"[5]; HT-29, 96 h",4 µM
same,IC50,"[6]; NCI-H460, 96 h",2 µM
same,IC50,[31],2 µM
same,IC50,[32],7 µM
same,IC50,[33],6 µM
same,IC50,"[7]; MCF7, 96 h",0.3 µM
same,IC50,[34],3 µM
same,IC50,[35],1 µM
same,IC50,[36],2 µM
same,IC50,[37],8 µM
same,MIC,[9]; 48 hrs,8 µg/mL
same,IC50,[10],4 µM
same,IC50,[38],8 µM
same,MIC,[12]; 48 h,4 µg/mL
same,IC50,[39],0.1 µM
same,IC50,[40],0.6 µM
same,IC50,[41],6 µM
same,IC50,[42],2 µM
same,IC50,[43],0.9 µM
same,IC50,"[13]; SK-OV-3, 96 h",> 25 µM
same,IC50,[44],7 µM
same,IC50,[45],7 µM
same,IC50,[46],1 µM
same,IC50,[47],0.9 µM
same,IC50,"[14]; SNB-19, 96 h",> 25 µM
same,IC50,[48],24 µM
same,IC50,[49],5 µM
same,MIC,[15]; 48 h,4 µg/mL
same,IC50,[50],> 25 µM
same,MIC,[16]; 48 hrs,4 µg/mL
same,IC50,[51],4 µM
same,IC50,[52],4 µM
same,IC50,[53],8 µM
same,IC50,[54],5 µM
same,IC50,[55],3 µM
same,IC50,[56],17 µM
same,IC50,[57],10 µM
same,IC50,[58],0.5 µM
same,IC50,[59],8 µM
